Reference: patent US9993494B2, “Compositions and methods for treating fibrotic disease” (eFFECTOR Therapeutics, Inc., priority 2014, dated 2018)

System: normal human lung fibroblasts
Test: Ribosomal profiling: translational efficiency in TGFβ-treated fibroblasts
Type: cell-based
Conditions: TGFβ-treated fibroblasts
In short: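 Cells lysed on ice after a cold PBS wash containing cycloheximide. Ribosome-protected fragments and total mRNA were prepared with the ARTseq kit and sequenced by RNA-Seq. Reads were trimmed, mapped to the human genome and counted uniquely over coding regions per gene, with low-count genes excluded before differential translational-efficiency analysis.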

## Cc1cc(C2CCCCC2)n(O)c(=O)c1.NCCO [CPX, ciclopirox oloamine]
Gene RPS6 (ENSG00000137154)
  effect in renormalizing the translational profile of the gene: − (− = <0.9)
Gene RPS6KA5 (ENSG00000100784)
  effect in renormalizing the translational profile of the gene: − (− = <0.9)
Gene RPS7 (ENSG00000171863)
  effect in renormalizing the translational profile of the gene: − (− = <0.9)
Gene RPS8 (ENSG00000142937)
  effect in renormalizing the translational profile of the gene: − (− = <0.9)
Gene RPS9 (ENSG00000170889)
  effect in renormalizing the translational profile of the gene: − (− = <0.9)
Gene RPS10 (ENSG00000124614)
  effect in renormalizing the translational profile of the gene: − (− = <0.9)
Gene RPS11 (ENSG00000142534)
  effect in renormalizing the translational profile of the gene: − (− = <0.9)
Gene RPS12 (ENSG00000112306)
  effect in renormalizing the translational profile of the gene: − (− = <0.9)
Gene RPS13 (ENSG00000110700)
  effect in renormalizing the translational profile of the gene: − (− = <0.9)
Gene RPS14 (ENSG00000164587)
  effect in renormalizing the translational profile of the gene: − (− = <0.9)
Gene RPS15 (ENSG00000115268)
  effect in renormalizing the translational profile of the gene: − (− = <0.9)
Gene RPS15A (ENSG00000134419)
  effect in renormalizing the translational profile of the gene: − (− = <0.9)
Gene RPS16 (ENSG00000105193)
  effect in renormalizing the translational profile of the gene: − (− = <0.9)
Gene RPS18 (ENSG00000231500)
  effect in renormalizing the translational profile of the gene: − (− = <0.9)
Gene RPS19 (ENSG00000105372)
  effect in renormalizing the translational profile of the gene: − (− = <0.9)
Gene RPS20 (ENSG00000008988)
  effect in renormalizing the translational profile of the gene: − (− = <0.9)
Gene RPS21 (ENSG00000171858)
  effect in renormalizing the translational profile of the gene: − (− = <0.9)
Gene RPS23 (ENSG00000186468)
  effect in renormalizing the translational profile of the gene: − (− = <0.9)
Gene RPS24 (ENSG00000138326)
  effect in renormalizing the translational profile of the gene: − (− = <0.9)
Gene RPS25 (ENSG00000118181)
  effect in renormalizing the translational profile of the gene: − (− = <0.9)
Gene RPS26 (ENSG00000197728)
  effect in renormalizing the translational profile of the gene: − (− = <0.9)
Gene RPS27 (ENSG00000177954)
  effect in renormalizing the translational profile of the gene: − (− = <0.9)
Gene RPS27A (ENSG00000143947)
  effect in renormalizing the translational profile of the gene: − (− = <0.9)
Gene RPS28 (ENSG00000233927)
  effect in renormalizing the translational profile of the gene: + (+ = 0.9 to 1.5)
Gene RPS29 (ENSG00000213741)
  effect in renormalizing the translational profile of the gene: − (− = <0.9)
Gene RPSA (ENSG00000168028)
  effect in renormalizing the translational profile of the gene: − (− = <0.9)
Gene RTN2 (ENSG00000125744)
  effect in renormalizing the translational profile of the gene: − (− = <0.9)
Gene SEMA3A (ENSG00000075213)
  effect in renormalizing the translational profile of the gene: − (− = <0.9)
Gene SGIP1 (ENSG00000118473)
  effect in renormalizing the translational profile of the gene: − (− = <0.9)
Gene SH3BGR (ENSG00000185437)
  effect in renormalizing the translational profile of the gene: − (− = <0.9)
Gene SHC3 (ENSG00000148082)
  effect in renormalizing the translational profile of the gene: +++ (+++ = >2.0)
Gene SLC2A12 (ENSG00000146411)
  effect in renormalizing the translational profile of the gene: − (− = <0.9)
Gene SLC7A7 (ENSG00000155465)
  effect in renormalizing the translational profile of the gene: − (− = <0.9)
Gene SLC15A3 (ENSG00000110446)
  effect in renormalizing the translational profile of the gene: − (− = <0.9)
Gene SLC25A6 (ENSG00000169100)
  effect in renormalizing the translational profile of the gene: − (− = <0.9)
Gene SLC40A1 (ENSG00000138449)
  effect in renormalizing the translational profile of the gene: ++ (++ = 1.5 to 2.0)
Gene SMO (ENSG00000128602)
  effect in renormalizing the translational profile of the gene: − (− = <0.9)
Gene SNRPA (ENSG00000077312)
  effect in renormalizing the translational profile of the gene: − (− = <0.9)
Gene SOX5 (ENSG00000134532)
  effect in renormalizing the translational profile of the gene: − (− = <0.9)
Gene SOX6 (ENSG00000110693)
  effect in renormalizing the translational profile of the gene: − (− = <0.9)
Gene SPATA6 (ENSG00000132122)
  effect in renormalizing the translational profile of the gene: − (− = <0.9)
Gene STAMBPL1 (ENSG00000138134)
  effect in renormalizing the translational profile of the gene: + (+ = 0.9 to 1.5)
Gene STS (ENSG00000101846)
  effect in renormalizing the translational profile of the gene: − (− = <0.9)
Gene SYNE2 (ENSG00000054654)
  effect in renormalizing the translational profile of the gene: − (− = <0.9)
Gene TAF1D (ENSG00000166012)
  effect in renormalizing the translational profile of the gene: − (− = <0.9)
Gene TDG (ENSG00000139372)
  effect in renormalizing the translational profile of the gene: − (− = <0.9)
Gene TEN1 (ENSG00000257949)
  effect in renormalizing the translational profile of the gene: − (− = <0.9)
Gene TET2 (ENSG00000168769)
  effect in renormalizing the translational profile of the gene: − (− = <0.9)
Gene TET3 (ENSG00000187605)
  effect in renormalizing the translational profile of the gene: − (− = <0.9)
Gene TGFBI (ENSG00000120708)
  effect in renormalizing the translational profile of the gene: − (− = <0.9)
Gene THBS3 (ENSG00000169231)
  effect in renormalizing the translational profile of the gene: − (− = <0.9)
Gene THG1L (ENSG00000113272)
  effect in renormalizing the translational profile of the gene: − (− = <0.9)
Gene TIMM9 (ENSG00000100575)
  effect in renormalizing the translational profile of the gene: − (− = <0.9)
Gene TKT (ENSG00000163931)
  effect in renormalizing the translational profile of the gene: − (− = <0.9)
Gene TMTC1 (ENSG00000133687)
  effect in renormalizing the translational profile of the gene: − (− = <0.9)
Gene TOMM7 (ENSG00000196683)
  effect in renormalizing the translational profile of the gene: + (+ = 0.9 to 1.5)
Gene TOP2A (ENSG00000131747)
  effect in renormalizing the translational profile of the gene: − (− = <0.9)
Gene TPGS1 (ENSG00000141933)
  effect in renormalizing the translational profile of the gene: − (− = <0.9)
Gene TPM2 (ENSG00000198467)
  effect in renormalizing the translational profile of the gene: − (− = <0.9)
Gene TPT1 (ENSG00000133112)
  effect in renormalizing the translational profile of the gene: − (− = <0.9)
Gene TRERF1 (ENSG00000124496)
  effect in renormalizing the translational profile of the gene: − (− = <0.9)
Gene UBA52 (ENSG00000221983)
  effect in renormalizing the translational profile of the gene: − (− = <0.9)
Gene UQCRB (ENSG00000156467)
  effect in renormalizing the translational profile of the gene: − (− = <0.9)
Gene UTRN (ENSG00000152818)
  effect in renormalizing the translational profile of the gene: − (− = <0.9)
Gene VIM (ENSG00000026025)
  effect in renormalizing the translational profile of the gene: − (− = <0.9)
Gene ZNF581 (ENSG00000171425)
  effect in renormalizing the translational profile of the gene: − (− = <0.9)
